Converted amounts (≈) assume the structure as drawn. “And” between values parts separate entries of the source, which are not always exact repeats. Identical values can stand only once.
How the values were obtained:
[1] = tested on: whole yeast cells; test: Oxygen consumption of whole yeast cells (oxygen electrode); assay type: cell-based, Saccharomyces cerevisiae
[2] = tested on: isolated yeast mitochondria; test: Mitochondrial oxygen consumption (MitoXpress probe); assay type: biochemical, Saccharomyces cerevisiae
Procedure: S. cerevisiae from frozen stock (−80°C) was inoculated into yeast extract-peptone-glucose (YPD) medium (1% yeast extract, 2% peptone, and 2% glucose) and grown for 24 h at 30°C. The cultured cells were subcultured into yeast extract-peptone-galactose (YPGal) medium (1% yeast extract, 2% peptone, 2% galactose, and 0.1% glucose) and incubated overnight with continuous shaking at 30°C. When the optical density at 600 nm reached approximately 1.0, the cells were collected by centrifugation (3,000 × g at room temperature for 5 min). Intact mitochondria were isolated as per a previously described protocol ([35]) with minor modifications as follows. Yeast cells were converted to spheroplasts by incubation with Zymolyase-20T (Nacalai Tesque, Inc., Kyoto, Japan) (4 mg of Zymolyase-20T/g [wet weight] of cells) and disrupted using a Dounce homogenizer. The crude mitochondrial fraction was isolated by differential centrifugation ([35]). […]. The mitochondrial protein concentration was determined using the DC protein assay (Bio-Rad Laboratories, Inc., Hercules, CA, USA) following the manufacturer’s instructions. The mitochondrial stock solution was maintained on ice during the oxygen consumption experiment.
The mitochondrial oxygen consumption was measured using a phosphorescent oxygen-sensitive probe, MitoXpress-Xtra (Agilent Technologies, Santa Clara, CA, USA), as described previously ([16], [36]). Succinate was used as a respiratory substrate in this assay. […] A microplate reader, PHERAstar Plus (BMG Labtech GmbH, Ortenberg, Germany), was used to read. The time-resolved fluorescence protocol was set to read the plate at 1.5-min intervals for 60 min at an excitation wavelength of 337 nm, an emission wavelength of 665 nm, a delay time of 40 μs, and a gate time of 100 μs at 30°C.
[…]. […] For quantitative assessment, OCR was determined from the slope of the initial 7.5 min. OCR is expressed as micromolar of O2 per minute per milligram of protein.
The drug concentration was expressed as micromoles per milligram of protein. […]

[3] = target: T1, respiratory chain complex II + III (Candida albicans, UniProt A0A1D8PHA3+A0A1D8PJX3+P0C8L0); test: Respiratory chain enzymatic activity, complexes II plus III, C. albicans; assay type: biochemical; conditions: C. albicans mitochondria; read-out: IC50 ± SD, Complex II + III
T1 sequence (P0C8L0 1-387): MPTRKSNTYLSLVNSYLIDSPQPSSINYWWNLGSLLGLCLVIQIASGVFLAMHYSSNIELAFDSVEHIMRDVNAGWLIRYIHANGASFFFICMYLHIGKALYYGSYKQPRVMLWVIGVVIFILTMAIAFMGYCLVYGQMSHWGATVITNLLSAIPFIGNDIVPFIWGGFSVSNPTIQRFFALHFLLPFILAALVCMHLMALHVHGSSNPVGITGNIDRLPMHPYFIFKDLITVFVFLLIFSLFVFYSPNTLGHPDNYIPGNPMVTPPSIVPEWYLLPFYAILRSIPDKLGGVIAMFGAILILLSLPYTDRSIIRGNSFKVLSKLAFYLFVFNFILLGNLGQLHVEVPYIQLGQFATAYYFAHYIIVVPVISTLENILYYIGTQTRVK
T1 sequence (A0A1D8PHA3 43-288): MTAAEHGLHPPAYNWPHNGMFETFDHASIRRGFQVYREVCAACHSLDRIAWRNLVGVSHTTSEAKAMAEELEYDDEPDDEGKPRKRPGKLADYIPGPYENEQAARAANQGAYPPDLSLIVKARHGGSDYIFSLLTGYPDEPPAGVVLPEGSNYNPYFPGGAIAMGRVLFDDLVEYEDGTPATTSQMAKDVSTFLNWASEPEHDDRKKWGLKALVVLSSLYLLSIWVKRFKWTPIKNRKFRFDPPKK
T1 sequence (A0A1D8PJX3 30-213): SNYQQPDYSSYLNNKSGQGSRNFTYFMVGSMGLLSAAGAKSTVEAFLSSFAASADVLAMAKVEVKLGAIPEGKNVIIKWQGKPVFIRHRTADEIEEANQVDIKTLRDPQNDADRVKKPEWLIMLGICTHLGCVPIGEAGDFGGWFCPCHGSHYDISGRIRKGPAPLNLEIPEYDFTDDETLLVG

[4] = tested on: Saccharomyces cerevisiae; test: MIC determination, broth microdilution in semisynthetic medium; assay type: cell-based
Procedure: MIC was determined using the broth microdilution method based on the Clinical and Laboratory Standards Institute method with the following minor modifications ([38]). The medium used for MIC determination was semisynthetic medium, which was used for the measurement of intracellular ATP levels as described above. […].

[5] = tested on: C. albicans; conditions: cited from earlier work

SMILES: N=C(N)c1ccc(OCCCC2CCN(CCCOc3ccc(C(=N)N)cc3)CC2)cc1 [T-2307]
- effect on oxygen consumption in whole yeast cells [1]: dose-dependent inhibition of respiration
- effect on mitochondrial oxygen consumption rate (OCR) [2]: dose-dependent decrease
- IC50 [3]: 220 ± 55 µM
- MIC ([4]; 72 h): 0.0068 µg/mL and 0.0156 µM
- inhibition at 0.125 µM ([4]; read-out: growth inhibition): > 75%
- MIC reported previously [5]: 4 nM (≈ 1.75 ng/mL)

Reference: paper PMC6658782, “The Novel Arylamidine T-2307 Selectively Disrupts Yeast Mitochondrial Function by Inhibiting Respiratory Chain Complexes” (Antimicrobial Agents and Chemotherapy, 2019)
